In patent publication US11447475B2, “Isoxazole N-linked carbamoyl cyclohexyl acids as LPA antagonists” (BRISTOL-MYERS SQUIBB COMPANY, priority 2017, dated 2022) one finds IC50 data, which are given here for 46 compounds.

T1 sequence (Q92633 whole entry): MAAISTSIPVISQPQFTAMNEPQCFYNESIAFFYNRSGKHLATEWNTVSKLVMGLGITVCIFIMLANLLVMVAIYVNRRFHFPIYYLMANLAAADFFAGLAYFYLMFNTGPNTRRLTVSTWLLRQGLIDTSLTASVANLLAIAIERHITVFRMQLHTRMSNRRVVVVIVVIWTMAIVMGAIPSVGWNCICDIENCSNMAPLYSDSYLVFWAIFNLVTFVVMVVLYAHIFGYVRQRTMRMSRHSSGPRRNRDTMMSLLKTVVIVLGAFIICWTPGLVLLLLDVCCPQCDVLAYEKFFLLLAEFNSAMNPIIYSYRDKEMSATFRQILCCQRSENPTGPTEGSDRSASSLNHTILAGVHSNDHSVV

One test concerns the target T1, human LPA1 (Homo sapiens, UniProt Q92633).
T1 construct: expressed in transfected cells; host or cells: Chinese hamster ovary (CHO) cells
Put plainly: LPA1 functional antagonist assay (calcium flux). Type of test: cell-based. The following applies: CHO cells overexpressing human LPA1; inhibition of calcium flux induced by 10 nM LPA; read-out: hLPA1 IC50. As to the method: The effectiveness of compounds of the present invention as LPA1 inhibitors can be determined in an LPA1 functional antagonist assay as follows:
Chinese hamster ovary cells overexpressing human LPA1 were plated overnight (15,000 cells/well) in poly-D-lysine coated 384-well microplates (Greiner bio-one, Cat #781946) in DMEM/F12 medium (Gibco, Cat #11039). Following overnight culture, cells were loaded with calcium indicator dye (AAT Bioquest Inc, Cat #34601) for 30 minutes at 37° C. The cells were then equilibrated to room temperature for 30 minutes before the assay. Test compounds solubilized in DMSO were transferred to 384 well non-binding surface plates (Corning, Cat #3575) using the Labcyte Echo acoustic dispense and diluted with assay buffer [1×HBSS with calcium/magnesium (Gibco Cat #14025-092), 20 mM HEPES (Gibco Cat #15630-080) and 0.1% fatty acid free BSA (Sigma Cat #A9205)] to a final concentration of 0.5% DMSO. Diluted compounds were added to the cells by FDSS6000 (Hamamatsu) at final concentrations ranging from 0.08 nM to 5 μM. and were then incubated for 20 min at room temperature at which time LPA (Avanti Polar Lipids Cat #857130C) was added at final concentrations of 10 nM to stimulate the cells. […] IC50 values were determined by fitting data to a 4-parameter logistic equation (GraphPad Prism, San Diego Calif.).
`Cc1noc(-c2ccc(O[C@H]3CCC[C@H](C(=O)O)C3)cn2)c1CNC(=O)OCc1ccc(F)cc1` [Example 1, (1S,3S)-3-((6-(4-(((((4-Fluorobenzyl)oxy)carbonyl)amino)methyl)-3-methylisoxazol-5-yl) Pyridin-3-yl)oxy)cyclohexanecarboxylic Acid]: the IC50 (in general, the concentration that gives 50% inhibition) is 9 nM. Take `Cc1noc(-c2ccc(O[C@H]3CCC[C@H](C(=O)O)C3)cn2)c1CNC(=O)OCc1cccc(F)c1` [Example 3]: the IC50 was 5 nM. For `Cc1noc(-c2ccc(O[C@H]3CCC[C@H](C(=O)O)C3)cn2)c1CNC(=O)OCc1cc(F)cc(F)c1` [Example 37, (1S,3S)-3-((6-(4-(((((3,5-difluorobenzyl)oxy)carbonyl)amino)methyl)-3-methylisoxazol-5-yl)pyridin-3-yl)oxy)cyclohexane-1-carboxylic Acid], the half-maximal inhibitory concentration (IC50) came to 27 nM.

The test is the same for the next values; noted with them: read-out: hLPA1 IC50.
Take `Cc1noc(-c2ccc(O[C@H]3CCCC(C(=O)O)C3)cc2)c1CNC(=O)OCC1CC1C` (mixture of isomers) [Example 14]: the IC50 was 97 nM. On the same count and under the same terms, in the case of `Cc1noc(-c2ccc(O[C@@H]3CCC[C@@H](C(=O)O)C3)cc2)c1CNC(=O)O[C@@H](C)c1ccccc1` (mixture of isomers) [Example 16] it was 1610 nM; in that of `Cc1noc(-c2ccc(O[C@@H]3CCC[C@@H](C(=O)O)C3)cc2)c1CNC(=O)O[C@H](C)c1ccccc1` (mixture of isomers) [Example 17], 293 nM; in that of `CCC(C)COC(=O)NCc1c(C)noc1-c1ccc(O[C@@H]2CCC[C@@H](C(=O)O)C2)cc1` (mixture of isomers) [Example 25], 96 nM. As for `Cc1noc(-c2ccc(O[C@@H]3CCC[C@@H](C(=O)O)C3)cc2)c1CNC(=O)OC(C)C1CC1` (mixture of isomers) [Example 27], the half-inhibitory concentration (IC50) amounted to 1140 nM. With `Cc1noc(-c2ccc(O[C@@H]3CCC[C@@H](C(=O)O)C3)cc2)c1CNC(=O)OCc1cccc(F)c1` (racemic) [Example 21], the IC50 is 257 nM.

In the case of `Cc1noc(-c2ccc(O[C@@H]3CCC[C@@H](C(=O)O)C3)cc2)c1CNC(=O)OCC(C)C` (racemic) [Example 22], the IC50 is 2130 nM. Consider `CCCCOC(=O)NCc1c(C)noc1-c1ccc(O[C@@H]2CCC[C@@H](C(=O)O)C2)cc1` (racemic) [Example 23], for which the IC50 was 319 nM.

`Cc1noc(-c2ccc(O[C@@H]3CCC[C@@H](C(=O)O)C3)cc2)c1CNC(=O)OCCC(C)C` (racemic) [Example 24]: the half-maximal inhibitory concentration (IC50) was 63 nM. Regarding `Cc1noc(-c2ccc(O[C@@H]3CCC[C@@H](C(=O)O)C3)cc2)c1CNC(=O)OCC(C)(C)C` (racemic) [Example 26], the IC50 came out at 334 nM.

With `Cc1noc(-c2ccc(O[C@@H]3CCC[C@@H](C(=O)O)C3)cc2)c1CNC(=O)OCC1CCC1` (racemic) [Example 29], the IC50 amounted to 407 nM. The same measure, in the same setting: in the case of `Cc1noc(-c2ccc(O[C@H]3CCC[C@@H](C(=O)O)C3)cc2)c1NC(=O)O[C@H](C)C1CC1` (racemic) [Example 33] it was 84 nM; in that of `Cc1noc(-c2cnc(O[C@H]3CCC[C@H](C(=O)O)C3)cn2)c1CNC(=O)OCc1ccccc1` (racemic) [Example 52, (±)-Trans-3-((5-(4-((((benzyloxy)carbonyl)amino)methyl)-3-methyl-isoxazol-5-yl)pyrazin-2-yl)oxy)cyclohexane-1-carboxylic Acid], 111 nM; in that of `Cc1noc(-c2ccc(O[C@H]3CCC[C@H](C(=O)O)C3)cc2)c1NC(=O)O[C@H](C)C1CC1` (single isomer, unassigned) [Example 32], 84 nM. Consider `Cc1noc(-c2ccc(O[C@H]3CCC[C@H](C(=O)O)C3)cn2)c1CNC(=O)OCc1ccccc1` (single isomer, unassigned) [Example 56], for which the IC50 was 4 nM.

As for `Cc1noc(-c2ccc(O[C@@H]3CCC[C@@H](C(=O)O)C3)cn2)c1CNC(=O)OCc1ccccc1` (single isomer, unassigned) [Example 57], the half-inhibitory concentration (IC50) stood at 49 nM.

`Cc1noc(-c2ccc(O[C@H]3CCC[C@H](C(=O)O)C3)cn2)c1CNC(=O)OCc1cccc(Cl)c1` [Example 4]: the IC50 came to 30 nM. For `Cc1cccc(COC(=O)NCc2c(C)noc2-c2ccc(O[C@H]3CCC[C@H](C(=O)O)C3)cn2)c1` [Example 5], the concentration for half-maximal inhibition (IC50) is 25 nM. Still for that read-out and setting: in the case of `Cc1noc(-c2ccc(O[C@H]3CCC[C@H](C(=O)O)C3)cn2)c1CNC(=O)OCCC(C)(C)C` [Example 6] it was 7 nM. Take `Cc1noc(-c2ccc(O[C@H]3CCC[C@H](C(=O)O)C3)cn2)c1CNC(=O)OCC1CCC1` [Example 7]: the IC50 was 16 nM. Consider `Cc1noc(-c2ccc(O[C@H]3CCC[C@H](C(=O)O)C3)cn2)c1CNC(=O)OCC1CC(C)(C)C1` [Example 8], for which the IC50 was 5.5 nM. `Cc1noc(-c2ccc(O[C@H]3CCC[C@H](C(=O)O)C3)cc2)c1CNC(=O)OCc1cccc(Cl)c1` [Example 11]: the half-maximal inhibitory concentration (IC50) stood at 197 nM. Turning to `Cc1noc(-c2ccc(O[C@H]3CCC[C@H](C(=O)O)C3)cc2)c1CNC(=O)OCc1ccc(Cl)cc1` [Example 12], the IC50 turned out to be 2.77 nM.

With `Cc1noc(-c2ccc(O[C@H]3CCC[C@H](C(=O)O)C3)cc2)c1CN(C)C(=O)OCc1ccccc1` [Example 13], the concentration for half-maximal inhibition (IC50) was 63 nM. As to `Cc1noc(-c2ccc(O[C@@H]3CCC[C@@H](C(=O)O)C3)cc2)c1CNC(=O)OCc1ccc(F)cc1` [Example 18], the half-inhibitory concentration (IC50) worked out at 159 nM. With `Cc1noc(-c2ccc(O[C@@H]3CCC[C@@H](C(=O)O)C3)cc2)c1CNC(=O)OCc1ccccc1F` [Example 19], the IC50 is 152 nM. The same measure, in the same setting: in the case of `Cc1noc(-c2ccc(O[C@@H]3CCC[C@@H](C(=O)O)C3)cc2)c1CNC(=O)OCc1ccccc1Cl` [Example 20] it was 244 nM; in that of `Cc1noc(-c2ccc(O[C@@H]3CCC[C@@H](C(=O)O)C3)cc2)c1CNC(=O)OCCC1CC1` [Example 28], 263 nM. In the case of `Cc1noc(-c2ccc(O[C@H]3CCC[C@H](C(=O)O)C3)cn2)c1NC(=O)O[C@H](C)C1CC1` [Example 34, (1S,3S)-3-((6-(4-((((R)-1-cyclopropylethoxy)carbonyl)amino)-3-methylisoxazol-5-yl)pyridin-3-yl)oxy)cyclohexane-1-carboxylic Acid], the concentration for half-maximal inhibition (IC50) came out at 30 nM. For `Cc1noc(-c2ccc(O[C@H]3CCC[C@H](C(=O)O)C3)cn2)c1CNC(=O)NCc1ccccc1` [Example 35, (1S,3S)-3-((6-(4-((3-benzylureido)methyl)-3-methylisoxazol-5-yl)pyridin-3-yl)oxy)cyclohexane-1-carboxylic Acid], the IC50 was found to be 229 nM.

Consider `CCCCCCOC(=O)NCc1c(C)noc1-c1ccc(O[C@H]2CCC[C@H](C(=O)O)C2)cn1` [Example 36, (1S,3S)-3-((6-(4-((((hexyloxy)carbonyl)amino)methyl)-3-methylisoxazol-5-yl)pyridin-3-yl)oxy)cyclohexane-1-carboxylic Acid], for which the IC50 amounted to 46 nM.

Turning to `Cc1noc(-c2ccc(O[C@H]3CCC[C@H](C(=O)O)C3)cn2)c1CNC(=O)OC1CCCC1` [Example 38], the IC50 was 63 nM. As to `Cc1nc(-c2onc(C)c2CNC(=O)OCC(C)C)ccc1O[C@H]1CCC[C@H](C(=O)O)C1` [Example 39], the IC50 stood at 37 nM. The same measure, in the same setting: in the case of `Cc1nc(-c2onc(C)c2CN(C)C(=O)OCC(C)C)ccc1O[C@H]1CCC[C@H](C(=O)O)C1` [Example 40] it was 34 nM; in that of `CCCOC(=O)NCc1c(C)noc1-c1ccc(O[C@H]2CCC[C@H](C(=O)O)C2)c(C)n1` [Example 41], 20 nM.

As for `CCCCOC(=O)NCc1c(C)noc1-c1ccc(O[C@H]2CCC[C@H](C(=O)O)C2)c(C)n1` [Example 42], the concentration for half-maximal inhibition (IC50) is 8 nM. Same read-out and setting: in the case of `CCCCCOC(=O)NCc1c(C)noc1-c1ccc(O[C@H]2CCC[C@H](C(=O)O)C2)c(C)n1` [Example 43] it was 8 nM; in that of `CCCCCCOC(=O)NCc1c(C)noc1-c1ccc(O[C@H]2CCC[C@H](C(=O)O)C2)c(C)n1` [Example 44], 6 nM.

Turning to `COCCOC(=O)NCc1c(C)noc1-c1ccc(O[C@H]2CCC[C@H](C(=O)O)C2)c(C)n1` [Example 46], the IC50 was determined as 275 nM. Regarding `Cc1nc(-c2onc(C)c2CNC(=O)OC(C)C)ccc1O[C@H]1CCC[C@H](C(=O)O)C1` [Example 47], the IC50 turned out to be 30 nM. As to `Cc1nc(-c2onc(C)c2CNC(=O)OCc2ccccc2)ccc1O[C@H]1CCC[C@H](C(=O)O)C1` [Example 48], the concentration for half-maximal inhibition (IC50) was 5 nM. Turning to `Cc1nc(-c2onc(C)c2CN(C)C(=O)OCc2ccccc2)ccc1O[C@H]1CCC[C@H](C(=O)O)C1` [Example 49, (1S,3S)-3-((6-(4-((((Benzyloxy)carbonyl)(methyl)amino)methyl)-3-methyl-isoxazol-5-yl)-2-methylpyridin-3-yl)oxy)cyclohexanecarboxylic Acid], the half-maximal inhibitory concentration (IC50) was 6 nM. Turning to `Cc1nc(-c2onc(C)c2CNC(=O)OC(C)(C)C)ccc1O[C@H]1CCC[C@H](C(=O)O)C1` [Example 50, (1S,3S)-3-((6-(4-(((tert-butoxycarbonyl)amino)methyl)-3-methylisoxazol-5-yl)-2-methylpyridin-3-yl)oxy)cyclohexane-1-carboxylic Acid], the IC50 came to 44 nM.
